Source: patent publication EP4603105A1, “PHARMACEUTICAL COMPOSITION CONTAINING CYCLIC COMPOUND HAVING SELECTIVE KRAS INHIBITORY EFFECT AGAINST HRAS AND NRAS” (CHUGAI SEIYAKU KABUSHIKI KAISHA, priority 2022, dated 2024)
Where a SMILES comes first, the peptide text is derived from it. Bridges are numbered along the chain shown (N, C = ends). [ ]: non-standard residue; d: D form. hPhe(3-Cl-4-CF3) = N[C@@H](CCc1ccc(C(F)(F)F)c(Cl)c1)C(=O)O; NPrPhe(4-CF3) = CCCN[C@@H](Cc1ccc(C(F)(F)F)cc1)C(=O)O; NMeGly(cPent) = CN[C@H](C(=O)O)C1CCCC1; Pro(4,4-F2) = O=C(O)[C@@H]1CC(F)(F)CN1; Hyp = O=C(O)[C@@H]1C[C@@H](O)CN1; NMeL = CN[C@@H](CC(C)C)C(=O)O; NMeA = CN[C@@H](C)C(=O)O; Ac5c = NC1(C(=O)O)CCCC1; Aze = O=C(O)[C@@H]1CCN1; Ac4c = NC1(C(=O)O)CCC1; NEtG = CCNCC(=O)O; Sar = CNCC(=O)O

What was measured:
[1] = biological target: GDP-bound NRAS wild-type protein (Homo sapiens, UniProt P01111); assay: Binding to NRAS by surface plasmon resonance (SPR), KD and KD ratio to KRAS; conditions: ratio of KD for GDP-bound NRAS wild-type protein to KD for KRAS
Procedure, shortened: (§1)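 Biotinylated GDP-bound RAS was captured at about 100–300 RU. Running buffer: HBS pH 7.4, 10 mM MgCl2, 10 µM GDP, 1 mM DTT, 0.01% Tween 20, 4% DMSO.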

HRAS wild-type protein = HRAS wild-type protein (Homo sapiens, UniProt P01112); assay: Binding to HRAS by surface plasmon resonance (SPR), KD and KD ratio to KRAS; conditions: ratio of KD for HRAS wild-type protein to KD for KRAS
Procedure, shortened: as §1

[2] = test system: human lung cancer strain NCI-H441; assay type: cell-based
Procedure, shortened: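 Step one: dispense the test compound in serial DMSO dilutions. Step three: add the reagent and measure […].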

Chain of GDP-bound NRAS wild-type protein (P01111 whole entry): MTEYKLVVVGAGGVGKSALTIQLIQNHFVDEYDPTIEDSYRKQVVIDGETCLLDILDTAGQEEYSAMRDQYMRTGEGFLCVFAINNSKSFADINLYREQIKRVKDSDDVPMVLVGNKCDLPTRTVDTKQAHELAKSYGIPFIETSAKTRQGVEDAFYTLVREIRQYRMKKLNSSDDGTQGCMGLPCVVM
Chain of HRAS wild-type protein (P01112 whole entry): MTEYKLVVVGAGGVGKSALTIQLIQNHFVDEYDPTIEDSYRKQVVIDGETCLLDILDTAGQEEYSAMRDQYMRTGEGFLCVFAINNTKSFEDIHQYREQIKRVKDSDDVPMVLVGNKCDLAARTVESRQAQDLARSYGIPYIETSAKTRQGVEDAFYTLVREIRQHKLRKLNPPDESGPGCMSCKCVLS

SMILES	IC50 [2]	NRAS /KRAS [1]	HRAS /KRAS (HRAS wild-type protein)
CCCN1C(=O)CN(C)C(=O)CN(CC)C(=O)[C@H]([C@@H](C)CC)NC(=O)[C@H](CC(C)C)N(C)C(=O)C[C@@H](C(=O)N(C)C)NC(=O)[C@H](C2CCCC2)N(C)C(=O)C2(CCCC2)NC(=O)[C@@H]2CC(F)(F)CN2C(=O)[C@H](CCc2ccc(C(F)(F)F)c(Cl)c2)NC(=O)CN(C)C(=O)[C@@H]1Cc1ccc(C(F)(F)F)cc1 [PP0369] ([NMeL]I[NEtG][Sar][NPrPhe(4-CF3)][Sar][hPhe(3-Cl-4-CF3)][Pro(4,4-F2)][Ac5c][NMeGly(cPent)]D-NMe2; lactam N-11)	68.9 nM	B (a compound having 3 or more and less than 10 is denoted as B)	C (A compound having a KD ratio of 0.1 or more and less than 3 is denoted as C)
CCCN1C(=O)CN(C)C(=O)CN(CC)C(=O)[C@H]([C@@H](C)CC)NC(=O)[C@H](CC(C)C)N(C)C(=O)C[C@@H](C(=O)N(C)C)NC(=O)[C@H](C2CCCC2)N(C)C(=O)C2(CCC2)NC(=O)[C@@H]2CC(F)(F)CN2C(=O)[C@H](CCc2ccc(C(F)(F)F)c(Cl)c2)NC(=O)CN(C)C(=O)[C@@H]1Cc1ccc(C(F)(F)F)cc1 [PP0370] ([NMeL]I[NEtG][Sar][NPrPhe(4-CF3)][Sar][hPhe(3-Cl-4-CF3)][Pro(4,4-F2)][Ac4c][NMeGly(cPent)]D-NMe2; lactam N-11)	63.2 nM	B (a compound having 3 or more and less than 10 is denoted as B)	C (A compound having a KD ratio of 0.1 or more and less than 3 is denoted as C)
CCCN1C(=O)CN(C)C(=O)CN(CC)C(=O)[C@H]([C@@H](C)CC)NC(=O)[C@H](CC(C)C)N(C)C(=O)C[C@@H](C(=O)N(C)C)NC(=O)[C@H](C2CCCC2)N(C)C(=O)C2(CCC2)NC(=O)[C@@H]2C[C@@H](OCC)CN2C(=O)[C@H](CCc2ccc(C(F)(F)F)c(Cl)c2)NC(=O)CN(C)C(=O)[C@@H]1Cc1ccc(C(F)(F)F)cc1 [PP0372] ([NMeL]I[NEtG][Sar][NPrPhe(4-CF3)][Sar][hPhe(3-Cl-4-CF3)][Hyp](Et)[Ac4c][NMeGly(cPent)]D-NMe2; lactam N-11)	34.2 nM	B (a compound having 3 or more and less than 10 is denoted as B)	B (a compound having 3 or more and less than 10 is denoted as B)
CCCN1C(=O)CN(C)C(=O)[C@@H]2CCN2C(=O)[C@H]([C@@H](C)CC)NC(=O)[C@H](CC(C)C)N(C)C(=O)C[C@@H](C(=O)N(C)C)NC(=O)[C@H](C2CCCC2)N(C)C(=O)C2(CCCC2)NC(=O)[C@@H]2CCCN2C(=O)[C@H](CCc2ccc(C(F)(F)F)c(Cl)c2)NC(=O)CN(C)C(=O)[C@@H]1Cc1ccc(C(F)(F)F)cc1 [PP0373] ([NMeL]I[Aze][Sar][NPrPhe(4-CF3)][Sar][hPhe(3-Cl-4-CF3)]P[Ac5c][NMeGly(cPent)]D-NMe2; lactam N-11)	152 nM	B (a compound having 3 or more and less than 10 is denoted as B)	B (a compound having 3 or more and less than 10 is denoted as B)
CCCN1C(=O)CN(C)C(=O)[C@@H]2CCN2C(=O)[C@H]([C@@H](C)CC)NC(=O)[C@H](CC(C)C)N(C)C(=O)C[C@@H](C(=O)N(C)C)NC(=O)[C@H](C2CCCC2)N(C)C(=O)C2(CCC2)NC(=O)[C@@H]2CCCN2C(=O)[C@H](CCc2ccc(C(F)(F)F)c(Cl)c2)NC(=O)CN(C)C(=O)[C@@H]1Cc1ccc(C(F)(F)F)cc1 [PP0374] ([NMeL]I[Aze][Sar][NPrPhe(4-CF3)][Sar][hPhe(3-Cl-4-CF3)]P[Ac4c][NMeGly(cPent)]D-NMe2; lactam N-11)	142 nM	B (a compound having 3 or more and less than 10 is denoted as B)	B (a compound having 3 or more and less than 10 is denoted as B)
CCCN1C(=O)CN(C)C(=O)[C@@H]2CCN2C(=O)[C@H]([C@@H](C)CC)NC(=O)[C@H](CC(C)C)N(C)C(=O)C[C@@H](C(=O)N(C)C)NC(=O)[C@H](C2CCCC2)N(C)C(=O)C2(CCCC2)NC(=O)[C@@H]2CC(F)(F)CN2C(=O)[C@H](CCc2ccc(C(F)(F)F)c(Cl)c2)NC(=O)CN(C)C(=O)[C@@H]1Cc1ccc(C(F)(F)F)cc1 [PP0375] ([NMeL]I[Aze][Sar][NPrPhe(4-CF3)][Sar][hPhe(3-Cl-4-CF3)][Pro(4,4-F2)][Ac5c][NMeGly(cPent)]D-NMe2; lactam N-11)	57.1 nM	B (a compound having 3 or more and less than 10 is denoted as B)	B (a compound having 3 or more and less than 10 is denoted as B)

More lines, in order of falling IC50 [2], values ahead:

IC50 [2]	SMILES	NRAS /KRAS [1]	HRAS /KRAS (HRAS wild-type protein)
33.4 nM	CCCN1C(=O)CN(C)C(=O)[C@@H]2CCN2C(=O)[C@H]([C@@H](C)CC)NC(=O)[C@H](CC(C)C)N(C)C(=O)C[C@@H](C(=O)N(C)C)NC(=O)[C@H](C2CCCC2)N(C)C(=O)C2(CCCC2)NC(=O)[C@@H]2C[C@@H](OCC)CN2C(=O)[C@H](CCc2ccc(C(F)(F)F)c(Cl)c2)NC(=O)CN(C)C(=O)[C@@H]1Cc1ccc(C(F)(F)F)cc1 [PP0377] ([NMeL]I[Aze][Sar][NPrPhe(4-CF3)][Sar][hPhe(3-Cl-4-CF3)][Hyp](Et)[Ac5c][NMeGly(cPent)]D-NMe2; lactam N-11)	B (a compound having 3 or more and less than 10 is denoted as B)	C (A compound having a KD ratio of 0.1 or more and less than 3 is denoted as C)
30.9 nM	CCCN1C(=O)CN(C)C(=O)CN(CC)C(=O)[C@H]([C@@H](C)CC)NC(=O)[C@H](CC(C)C)N(C)C(=O)C[C@@H](C(=O)N(C)C)NC(=O)[C@H](C2CCCC2)N(C)C(=O)C2(CCCC2)NC(=O)[C@@H]2C[C@@H](OCC)CN2C(=O)[C@H](CCc2ccc(C(F)(F)F)c(Cl)c2)NC(=O)CN(C)C(=O)[C@@H]1Cc1ccc(C(F)(F)F)cc1 [PP0371] ([NMeL]I[NEtG][Sar][NPrPhe(4-CF3)][Sar][hPhe(3-Cl-4-CF3)][Hyp](Et)[Ac5c][NMeGly(cPent)]D-NMe2; lactam N-11)	B (a compound having 3 or more and less than 10 is denoted as B)	C (A compound having a KD ratio of 0.1 or more and less than 3 is denoted as C)
16.4 nM	CCCN1C(=O)[C@@H]2CCN2C(=O)[C@H](C)N(C)C(=O)[C@H]([C@@H](C)CC)NC(=O)[C@H](CC(C)C)N(C)C(=O)C[C@@H](C(=O)N(C)C)NC(=O)[C@H](C2CCCC2)N(C)C(=O)C2(CCC2)NC(=O)[C@@H]2CCCN2C(=O)[C@H](CCc2ccc(C(F)(F)F)c(Cl)c2)NC(=O)CN(C)C(=O)[C@@H]1Cc1ccc(C(F)(F)F)cc1 [PP0380] ([NMeL]I[NMeA][Aze][NPrPhe(4-CF3)][Sar][hPhe(3-Cl-4-CF3)]P[Ac4c][NMeGly(cPent)]D-NMe2; lactam N-11)	C (A compound having a KD ratio of 0.1 or more and less than 3 is denoted as C)	B (a compound having 3 or more and less than 10 is denoted as B)
12.1 nM	CCCN1C(=O)[C@@H]2CCN2C(=O)[C@H](C)N(C)C(=O)[C@H]([C@@H](C)CC)NC(=O)[C@H](CC(C)C)N(C)C(=O)C[C@@H](C(=O)N(C)C)NC(=O)[C@H](C2CCCC2)N(C)C(=O)C2(CCC2)NC(=O)[C@@H]2CC(F)(F)CN2C(=O)[C@H](CCc2ccc(C(F)(F)F)c(Cl)c2)NC(=O)CN(C)C(=O)[C@@H]1Cc1ccc(C(F)(F)F)cc1 [PP0382] ([NMeL]I[NMeA][Aze][NPrPhe(4-CF3)][Sar][hPhe(3-Cl-4-CF3)][Pro(4,4-F2)][Ac4c][NMeGly(cPent)]D-NMe2; lactam N-11)	C (A compound having a KD ratio of 0.1 or more and less than 3 is denoted as C)	B (a compound having 3 or more and less than 10 is denoted as B)
11.1 nM	CCCN1C(=O)[C@@H]2CCN2C(=O)[C@H](C)N(C)C(=O)[C@H]([C@@H](C)CC)NC(=O)[C@H](CC(C)C)N(C)C(=O)C[C@@H](C(=O)N(C)C)NC(=O)[C@H](C2CCCC2)N(C)C(=O)C2(CCCC2)NC(=O)[C@@H]2CC(F)(F)CN2C(=O)[C@H](CCc2ccc(C(F)(F)F)c(Cl)c2)NC(=O)CN(C)C(=O)[C@@H]1Cc1ccc(C(F)(F)F)cc1 [PP0381] ([NMeL]I[NMeA][Aze][NPrPhe(4-CF3)][Sar][hPhe(3-Cl-4-CF3)][Pro(4,4-F2)][Ac5c][NMeGly(cPent)]D-NMe2; lactam N-11)	C (A compound having a KD ratio of 0.1 or more and less than 3 is denoted as C)	B (a compound having 3 or more and less than 10 is denoted as B)
4.4 nM	CCCN1C(=O)[C@@H]2CCN2C(=O)[C@H](C)N(C)C(=O)[C@H]([C@@H](C)CC)NC(=O)[C@H](CC(C)C)N(C)C(=O)C[C@@H](C(=O)N(C)C)NC(=O)[C@H](C2CCCC2)N(C)C(=O)C2(CCCC2)NC(=O)[C@@H]2CCCN2C(=O)[C@H](CCc2ccc(C(F)(F)F)c(Cl)c2)NC(=O)CN(C)C(=O)[C@@H]1Cc1ccc(C(F)(F)F)cc1 [PP0379] ([NMeL]I[NMeA][Aze][NPrPhe(4-CF3)][Sar][hPhe(3-Cl-4-CF3)]P[Ac5c][NMeGly(cPent)]D-NMe2; lactam N-11)	C (A compound having a KD ratio of 0.1 or more and less than 3 is denoted as C)	B (a compound having 3 or more and less than 10 is denoted as B)
